Here are results for 17 compounds from patent publication US9044015B2, “Heterocyclic compounds as pesticides” (Bayer CropScience AG, priority 2010, dated 2015).

One may read the chromatographic logP as a lipophilicity value derived from retention on a column. Higher therefore signals a more lipophilic compound.

The subject of data set [1] is Myzus persicae organophosphate/carbamate resistant strain. The data set is described as follows: Myzus spray test. The note with it: application rate 100 ppm; after 6 days; sprayed aubergine plants; 100% = all insects killed.
The subject of the next data set is Meloidogyne incognita. The data set is described as follows: Meloidogyne incognita test. It is filed as in vivo. The note with it: application rate 20 ppm; lettuce in sand with egg/larvae suspension. The method, then: Meloidogyne Incognita Test
Solvent: 80.0 parts by weight of acetone
Vessels are filled with sand, active ingredient solution, Meloidogyne incognita egg/larvae suspension and lettuce seeds. The lettuce seeds germinate and the plants develop. Galls develop on the roots.
After the desired time, the nematicidal action is determined by the gall formation in %. 100% means that no galls were found; 0% means that the number of galls on the treated plants corresponds to the untreated control.

A short description of data set [2]: Determination of the log P values (formic acid method). The method, then: 1) Description of Method for Determination of the log P Values (Formic Aid Method)
Eluents for determination in the acidic range (pH 3.4):
Eluent A: acetonitrile+1 ml of formic acid/liter. Eluent B: water+0.9 ml of formic acid/liter.
The lambda max values were determined in the maxima of the chromatographic signals using the UV spectra from 200 nm to 400 nm.

In another data set the test system is Myzus persicae. In words: Myzus test (spray treatment). It is filed as in vivo. The note with it: foliar, application rate 500 g/ha, sprayed Chinese cabbage leaf discs, all stages of green peach aphid, read-out: efficacy in % (aphids killed). The method, then: Solvent 78 parts by weight of acetone • • 1.5 parts by weight of dimethylformamide
Emulsifier: 0.5 part by weight of alkylaryl polyglycol ether
To prepare an appropriate active ingredient preparation, 1 part by weight of active ingredient is mixed with the stated amounts of solvent and emulsifier, and the concentrate is diluted with emulsifier-containing water to the desired concentration.

The mark [3] stands for this setting: reverse-phase C18 HPLC column, pH 3.4, logP (HCOOH), final compounds table, HPLC reverse-phase C18, acidic range pH 3.4, 55° C.
The mark [4] stands for this setting: reverse-phase C18 HPLC column, pH 3.4, log P (HCOOH), preparation examples, HPLC-MS.

For the compound `COC(=N)c1cccc(-c2cnc(-c3cccnc3)s2)n1` [Compound 49], the efficacy in % in data set [1] is reported as 100%.

With `CCS(=O)(=O)NC(=O)c1cccc(-c2nnc(-c3cncc(F)c3)s2)n1` [Compound 70], the “efficacy in % (nematicidal action by gall formation)” value in the data set with Meloidogyne incognita was determined as 100%. Further, in data set [2] (setting [3]), the chromatographic logP is 2.07. Also, the pest or weed control at 500 g/ha in the data set on Myzus persicae was found to be 100%.

Take `O=C(NS(=O)(=O)c1cccs1)c1cccc(-c2nnc(-c3cncc(F)c3)s2)n1` [Compound 75]: the “efficacy in % (nematicidal action by gall formation)” value in the data set with Meloidogyne incognita is on record as 100%. Moreover, the chromatographic logP in data set [2] (setting [3]) was 2.38. In addition, in the data set with Myzus persicae, the pest or weed control at 500 g/ha was found to be 100%.

As for `O=C(NS(=O)(=O)c1ccc(Cl)s1)c1cccc(-c2nnc(-c3cncc(F)c3)s2)n1` [Compound 78], the “efficacy in % (nematicidal action by gall formation)” value in the data set on Meloidogyne incognita was found to be 100%. The chromatographic logP in data set [2] (setting [3]) is 3.08. In the data set on Myzus persicae, the pest or weed control at 500 g/ha was 100%.

For `CC(C)(C)S(=O)(=O)NC(=O)c1cccc(-c2cnc(-c3cncc(F)c3)s2)n1` [Compound 56], the “efficacy in % (nematicidal action by gall formation)” value with Meloidogyne incognita was determined as 100%. This compound also showed a chromatographic logP in data set [2] (setting [3]) of 2.77. For the same compound, the pest or weed control at 500 g/ha in the data set on Myzus persicae was determined as 100%.

In the case of `COC(=N)c1cccc(-c2cnc(-c3cncc(F)c3)s2)n1` [Compound 50, Methyl 6-[2-(5-fluoropyridin-3-yl)-1,3-thiazol-5-yl]pyridine-2-carboximidoate], the chromatographic logP in data set [2] (setting [4]) came out at 0.9. Further, the efficacy in % in data set [1] is recorded as 100%.

Compound `CCN(CC)S(=O)(=O)NC(=O)c1cccc(-c2cnn(-c3cccnc3)c2)n1` [Compound 40] returned a chromatographic logP in data set [2] (pH 3.4, logP (HCOOH)) of 2.49. The pest or weed control at 500 g/ha with Myzus persicae stood at 100%.

In data set [2] (setting [3]), `O=C(NS(=O)(=O)C(F)F)c1cccc(-c2cnc(-c3cncc(F)c3)s2)n1` [Compound 11] had a chromatographic logP of 1.79. For the same compound, the pest or weed control at 500 g/ha in the data set on Myzus persicae was found to be 100%.

Turning to `O=C(NS(=O)(=O)C(F)(F)F)c1cccc(-c2cnc(-c3cncc(F)c3)s2)n1` [Compound 2, 6-[2-(5-Fluoropyridin-3-yl)-1,3-thiazol-5-yl]-N-[(trifluoromethyl)sulphonyl]pyridine-2-carboxamide], the chromatographic logP in data set [2] (pH 3.4, log P (HCOOH)) was determined as 1.86; in data set [2] (pH 3.4, logP (HCOOH)), 1.86. Moreover, the pest or weed control at 500 g/ha in the data set with Myzus persicae was 100%.

Regarding `CS(=O)(=O)NC(=O)c1nc(-c2cnn(-c3cncc(F)c3)c2)cs1` [Compound 46, 4-[1-(5-Fluoropyridin-3-yl)-1H-pyrazol-4-yl]-N-(methylsulphonyl)-1,3-thiazole-2-carboxamide], the chromatographic logP in data set [2] (setting [4]) and in data set [2] (setting [3]) was 1.68 throughout. The pest or weed control at 500 g/ha with Myzus persicae worked out at 100%.

In data set [2] (pH 3.4, logP (HCOOH)), `O=C(NS(=O)(=O)C1CC1)c1cccc(-c2cnn(-c3cncnc3)c2)n1` [Compound 28] returned a chromatographic logP of 1.76. Also, the pest or weed control at 500 g/ha in the data set with Myzus persicae amounted to 80%.

As for `COCCS(=O)(=O)NC(=O)c1cccc(-c2cnc(-c3cncc(F)c3)s2)n1` [Compound 55], the chromatographic logP in data set [2] (setting [3]) was 2.19. Besides, in the data set with Myzus persicae, the pest or weed control at 500 g/ha is 100%.

Consider `CCS(=O)(=O)NC(=O)c1cccc(-c2cnn(-c3cccnc3)c2)n1` [Compound 25], for which the chromatographic logP in data set [2] (pH 3.4, logP (HCOOH)) was 1.77. In the data set with Myzus persicae, the pest or weed control at 500 g/ha was found to be 100%.

On to `O=C(NS(=O)(=O)C1CC1)c1cccc(-c2nnc(-c3cncc(F)c3)s2)n1` [Compound 71], for which, in data set [2] (pH 3.4, logP (HCOOH)), the chromatographic logP was determined as 2.14. The pest or weed control at 500 g/ha in the data set with Myzus persicae was 100%.

`CC(=O)NS(=O)(=O)c1cccc(-c2cnc(-c3cncc(F)c3)s2)n1` [Compound 67]: in data set [2] (setting [3]), the chromatographic logP amounted to 1.72. For the same compound, the pest or weed control at 500 g/ha in the data set with Myzus persicae was determined as 100%.

In the case of `CN(C(=O)c1cccc(-c2cnc(-c3cncc(F)c3)s2)n1)S(C)(=O)=O` [Compound 52], the chromatographic logP in data set [2] (setting [3]) was determined as 2.27. Also, the pest or weed control at 500 g/ha with Myzus persicae came to 100%.

On to `O=C(NS(=O)(=O)N1CCCCC1)c1cccc(-c2cnc(-c3cncc(F)c3)s2)n1` [Compound 54], for which, in data set [2] (setting [3]), the chromatographic logP stood at 3.29. Also, the pest or weed control at 500 g/ha in the data set on Myzus persicae was determined as 100%.
